Measured values published in US20090137550A1, “Novel Compounds” (Glaxo Group Limited, priority 2005, published 2009).

Tests used:
[1] = tested on: LPS-stimulated cytokine production (IL-1beta and/or TNFalpha); test: LPS-Stimulated Cytokine Production in Human Whole Blood; type: cell-based; settings: 50 ng/ml LPS, 4 hour incubation, IL-1beta and/or TNFalpha by ELISA
Method: Assay: Test compound concentrations were prepared at 10× concentrations and LPS prepared at 1 ug/ml (final conc. of 50 ng/ml LPS) and added in 50 uL volumes to 1.5 mL eppendorf tubes. Heparinized human whole blood was obtained from healthy volunteers and was dispensed into eppendorf tubes or multiwell plates containing compounds and LPS in 0.2-0.4 mL volumes and the tubes incubated at 37 C. In some studies, compound was incubated with blood for up to 30 min prior to addition of LPS. Following a 4 hour incubation, the tubes or plates were centrifuged to remove cells and plasma was withdrawn and frozen at −80 C. Cytokine measurement: IL-Ibeta and/or TNFalpha were quantified using a standardized ELISA, or similar technology. Concentrations of IL-1beta or TNFalpha were determined from standard curves of the appropriate cytokine and IC50 values for test compound (concentration that inhibited 50% of LPS-stimulated cytokine production) were calculated by linear regression analysis.

[2] = tested on: TNF-stimulated IL8 production by human neutrophils; test: TNF-Stimulated IL-8 Production from Human Neutrophils; type: cell-based; settings: TNF 100 ng/ml, approximately 20 hrs, IL-8 by ELISA
[3] = tested on: IL-6, IL-8, GM-CSF, RANTES and COX-2; settings: a number of different cell types; cited from earlier work
[4] = tested on: fibronectin and thrombospondin; settings: Laping et al., 2002; cited from earlier work

## Cc1cc(F)ccc1-c1nc(NCCNC(N)=NC#N)nc2c1ccc(=O)n2-c1c(F)cccc1F [Example 10]
[1]
  IC50 (concentration that inhibited 50% of LPS-stimulated cytokine production): active
[2]
  IC50, TNF-stimulated IL-8 production: active

## C[S+]([O-])c1ccc(-c2nc(-c3ccncc3)c(-c3ccc(F)cc3)[nH]2)cc1 (centres unmarked) [SB-203580]
[3]
  decreasing the synthesis of pro-inflammatory proteins including IL-6, IL-8, GM-CSF, RANTES and COX-2: effective

## COc1nccc(-c2c(-c3ccc(F)cc3)ncn2C2CCNCC2)n1 [SB-242235]
[4]
  inhibition of TGF-β-induced increases in fibronectin and thrombospondin: inhibited

## Fc1ccc(-c2nc3n(c2-c2ccncc2)CCS3)cc1 [SK&F 86002]
[3]
  decreasing the synthesis of pro-inflammatory proteins including IL-6, IL-8, GM-CSF, RANTES and COX-2: effective
